Measurements reported in patent US20240116985A1, “STAPLED PEPTIDES AND METHODS THEREOF” (priority 2020, published 2024).

Key:
[1] = biological target: T1, beta-catenin/TCF4 engagement (Homo sapiens, UniProt P35222); test: Nano-BRET target engagement assay (B-cat-Halo & TCF4-Luc in HEK293 cells); assay type: cell-based; conditions: absolute IC50; read-out: NanoBRET Abs IC50
T1 construct: expressed in transfected cells; host or cells: HEK293
T1 sequence (P35222 1-781): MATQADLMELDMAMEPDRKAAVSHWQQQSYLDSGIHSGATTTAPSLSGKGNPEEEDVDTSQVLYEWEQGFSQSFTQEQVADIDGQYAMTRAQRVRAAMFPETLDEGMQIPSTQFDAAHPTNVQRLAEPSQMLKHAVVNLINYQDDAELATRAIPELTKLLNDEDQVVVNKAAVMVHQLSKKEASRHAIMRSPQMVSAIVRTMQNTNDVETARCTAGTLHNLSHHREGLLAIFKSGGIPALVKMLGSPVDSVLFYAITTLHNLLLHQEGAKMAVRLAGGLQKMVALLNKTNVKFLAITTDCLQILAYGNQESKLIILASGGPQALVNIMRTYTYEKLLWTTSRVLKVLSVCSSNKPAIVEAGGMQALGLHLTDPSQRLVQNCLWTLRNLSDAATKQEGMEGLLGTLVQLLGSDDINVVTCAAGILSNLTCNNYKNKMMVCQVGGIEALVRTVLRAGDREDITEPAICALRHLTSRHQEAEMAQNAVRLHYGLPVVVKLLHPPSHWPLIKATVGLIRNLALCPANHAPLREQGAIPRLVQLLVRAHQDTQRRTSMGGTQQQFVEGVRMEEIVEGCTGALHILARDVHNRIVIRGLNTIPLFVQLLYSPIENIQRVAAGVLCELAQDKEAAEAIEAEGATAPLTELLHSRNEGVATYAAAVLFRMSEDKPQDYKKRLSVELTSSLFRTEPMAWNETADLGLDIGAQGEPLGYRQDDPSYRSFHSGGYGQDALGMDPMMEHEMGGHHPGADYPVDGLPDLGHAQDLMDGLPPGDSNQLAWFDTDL

[2] = biological target: T2, full-length beta-Catenin (Uniprot ID P35222) (Homo sapiens, UniProt P35222); test: Fluorescence polarization IC50 (beta-catenin / 5FAM-TCF4 10-53 competition); assay type: binding; conditions: fluorescence polarization; read-out: beta-Catenin FP IC50
T2 construct: 10 nM full-length beta-Catenin (Uniprot ID P35222)
T2 sequence (P35222 1-781): T1 sequence (P35222 1-781)

Structure (SMILES)	IC50 [1]	IC50 [2]
CC(=O)N1CCC[C@]12CC=CCCCC1(CCCC=CCCCOC(=O)N3CC[C@@](C(=O)N[C@@H](Cc4ccccc4Cl)C(=O)N[C@@H](Cc4ccc5ccccc5c4)C(=O)N[C@@H](CCC(N)=O)C(N)=O)(C3)NC(=O)[C@H](CC(C)C)NC(=O)[C@H](Cc3ccccc3)NC(=O)[C@H](C)NC(=O)[C@H](C)NC(=O)[C@H](CC(=O)O)NC(=O)[C@H](CC(=O)O)NC1=O)NC(=O)[C@H](CC(C)(C)C)NC(=O)[C@H](CC(=O)O)NC2=O (stereo partly drawn) [I-1237, Ac-PL3-Asp-Npg-B5-Asp-Asp-Ala-Ala-Phe-Leu-PyrS2-2C1F-2NapA-Gln-NH2]	39900 nM	31 nM
CC(=O)N1CCC[C@]12CC=CCCCC1(CCCC=CCCCOC(=O)N3CC[C@@](C(=O)N[C@@H](Cc4ccsc4)C(=O)N[C@@H](Cc4ccc5ccccc5c4)C(=O)N[C@@H](CO)C(N)=O)(C3)NC(=O)[C@H](CC(C)C)NC(=O)[C@H](Cc3ccccc3)NC(=O)[C@H](C)NC(=O)[C@H](C)NC(=O)[C@H](CC(=O)O)NC(=O)[C@H](CC(=O)O)NC1=O)NC(=O)[C@H](CC(C)(C)C)NC(=O)[C@H](CC(=O)O)NC2=O (stereo partly drawn) [I-1239, Ac-PL3-Asp-Npg-B5-Asp-Asp-Ala-Ala-Phe-Leu-PyrS2-3Thi-2NapA-Ser-NH2]	31800 nM	33 nM
CCNC(=O)[C@H](CCC(N)=O)NC(=O)[C@H](Cc1csc2ccccc12)NC(=O)[C@H](Cc1ccccc1Cl)NC(=O)[C@]12CCN(C1)C(=O)OCCCC=CCCCC1(CCCC=CC[C@]3(CCCN3C(C)=O)C(=O)N[C@@H](CC(=O)O)C(=O)N[C@@H](CC(C)(C)C)C(=O)N1)C(=O)N[C@@H](CC(=O)O)C(=O)N[C@@H](CC(=O)O)C(=O)N[C@@H](C)C(=O)N[C@@H](C)C(=O)N[C@@H](Cc1ccccc1)C(=O)N[C@@H](CC(C)C)C(=O)N2 (stereo partly drawn) [I-1248, Ac-PL3-Asp-Npg-B5-Asp-Asp-Ala-Ala-Phe-Leu-PyrS2-2C1F-BztA-Gln-NHEt]	29700 nM	19 nM
CC(=O)N1CCC[C@]12CC=CCCCC1(CCCC=CCCCOC(=O)N3CC[C@@](C(=O)N[C@@H](Cc4ccccc4Cl)C(=O)N[C@@H](Cc4csc5ccccc45)C(=O)N[C@@H](C)CO)(C3)NC(=O)[C@H](CC(C)C)NC(=O)[C@H](Cc3ccccc3)NC(=O)[C@H](C)NC(=O)[C@H](C)NC(=O)[C@H](CC(=O)O)NC(=O)[C@H](CC(=O)O)NC1=O)NC(=O)[C@H](CC(C)(C)C)NC(=O)[C@H](CC(=O)O)NC2=O (stereo partly drawn) [I-1250, Ac-PL3-Asp-Npg-B5-Asp-Asp-Ala-Ala-Phe-Leu-PyrS2-2C1F-BztA-Alao1]	> 20000 nM	31 nM
C[C@@H]1NC(=O)[C@H](C)NC(=O)[C@H](CC(=O)O)NC(=O)[C@H](CC(=O)O)NC(=O)C2(CCCC=CCCCOC(=O)N3CC[C@@](C(=O)N[C@@H](Cc4ccccc4Cl)C(=O)N[C@@H](Cc4csc5ccccc45)C(=O)N[C@@H](C(N)=O)[C@H](C)O)(C3)NC(=O)[C@H](CC(N)=O)NC(=O)[C@H](Cc3ccccc3)NC1=O)CCCC=CC[C@]1(CCCN1S(C)(=O)=O)C(=O)N[C@@H](CC(=O)O)C(=O)N[C@@H](CC(C)(C)C)C(=O)N2 (stereo partly drawn) [I-1258, MeSO2-PL3-Asp-Npg-B5-Asp-Asp-Ala-Ala-Phe-Asn-PyrS2-2C1F-BztA-dThr-NH2]	> 20000 nM	17 nM
CC(=O)N1CCC[C@]12CC=CCCCC1(CCCC=CCCCOC(=O)N3CC[C@@](C(=O)N[C@@H](Cc4ccccc4Cl)C(=O)N[C@@H](Cc4csc5ccccc45)C(=O)N[C@H](C(N)=O)[C@@H](C)O)(C3)NC(=O)[C@H](CC(C)C)NC(=O)[C@H](Cc3ccccc3)NC(=O)[C@H](C)NC(=O)[C@H](CCCCNC(C)C)NC(=O)[C@H](CC(=O)O)NC(=O)[C@H](CC(=O)O)NC1=O)NC(=O)[C@H](CC(C)(C)C)NC(=O)[C@H](CC(=O)O)NC2=O (stereo partly drawn) [I-1276, Ac-PL3-Asp-Npg-B5-Asp-Asp-iPrLys-Ala-Phe-Leu-PyrS2-2C1F-BztA-Thr-NH2]	> 20000 nM	10 nM
CC(=O)N1CCC[C@]12CC=CCCCC1(CCCC=CCCCOC(=O)N3CC[C@@](C(=O)N[C@@H](Cc4ccccc4Cl)C(=O)N[C@@H](Cc4csc5ccccc45)C(=O)N[C@@H](CC(C)C)C(N)=O)(C3)NC(=O)[C@H](CC(C)C)NC(=O)[C@H](Cc3ccccc3)NC(=O)[C@H](C)NC(=O)[C@H](CCCCNC(C)C)NC(=O)[C@H](CC(=O)O)NC(=O)[C@H](CC(=O)O)NC1=O)NC(=O)[C@H](CC(C)(C)C)NC(=O)[C@H](CC(=O)O)NC2=O (stereo partly drawn) [I-1277, Ac-PL3-Asp-Npg-B5-Asp-Asp-iPrLys-Ala-Phe-Leu-PyrS2-2C1F-BztA-Leu-NH2]	> 20000 nM	17 nM

Continued by falling IC50 [1], values first:

IC50 [1]	IC50 [2]	Structure (SMILES)
28400 nM	198 nM	CC(=O)N1CCC[C@]12CC=CCCCC1(CCCC=CCCCOC(=O)N3CC[C@@](C(=O)N[C@@H](Cc4ccccc4)C(=O)N[C@@H](Cc4csc5ccccc45)C(=O)N[C@@H](CO)C(N)=O)(C3)NC(=O)[C@H]([C@@H](C)O)NC(=O)[C@H](Cc3cccc(C(F)(F)F)c3)NC(=O)[C@H](C)NC(=O)[C@H](C)NC(=O)[C@H]([C@@H](C)O)NC(=O)[C@H](CC(=O)O)NC1=O)NC(=O)[C@H](CC(C)(C)C)NC(=O)[C@H](CC(=O)O)NC2=O (stereo partly drawn) [I-1268, Ac-PL3-Asp-Npg-B5-Asp-Thr-Ala-Ala-3F3MeF-Thr-PyrS2-Phe-BztA-Ser-NH2]
27800 nM	9 nM	CC(=O)N1CCC[C@]12CC=CCCCC1(CCCC=CCCCOC(=O)N3CC[C@@](C(=O)N[C@@H](Cc4ccccc4Cl)C(=O)N[C@@H](Cc4csc5ccccc45)C(=O)N[C@@H](CCC(N)=O)C(N)=O)(C3)NC(=O)[C@H](CC(C)C)NC(=O)[C@H](Cc3ccccc3)NC(=O)[C@H](C)NC(=O)[C@H](CCCCNC(C)C)NC(=O)[C@H](CC(=O)O)NC(=O)[C@H](CC(=O)O)NC1=O)NC(=O)[C@H](CC(C)(C)C)NC(=O)[C@H](CC(=O)O)NC2=O (stereo partly drawn) [I-1275, Ac-PL3-Asp-Npg-B5-Asp-Asp-iPrLys-Ala-Phe-Leu-PyrS2-2C1F-BztA-Gln-NH2]
25200 nM	17 nM	CC(=O)N1CCC[C@]12CC=CCCCC1(CCCC=CCCCOC(=O)N3CC[C@@](C(=O)N[C@@H](Cc4ccccc4Cl)C(=O)N[C@@H](Cc4csc5ccccc45)C(=O)N[C@H](CO)[C@@H](C)O)(C3)NC(=O)[C@H](CC(C)C)NC(=O)[C@H](Cc3ccccc3)NC(=O)[C@H](C)NC(=O)[C@H](C)NC(=O)[C@H](CC(=O)O)NC(=O)[C@H](CC(=O)O)NC1=O)NC(=O)[C@H](CC(C)(C)C)NC(=O)[C@H](CC(=O)O)NC2=O (stereo partly drawn) [I-1249, Ac-PL3-Asp-Npg-B5-Asp-Asp-Ala-Ala-Phe-Leu-PyrS2-2C1F-BztA-Thro1]
23100 nM	44 nM	CC(=O)N1CCC[C@]12CC=CCCCC1(CCCC=CCCCOC(=O)N3CC[C@@](C(=O)N[C@@H](Cc4ccsc4)C(=O)N[C@@H](Cc4cccc5ccccc45)C(=O)N[C@@H](CO)C(N)=O)(C3)NC(=O)[C@H](CC(C)C)NC(=O)[C@H](Cc3ccccc3)NC(=O)[C@H](C)NC(=O)[C@H](C)NC(=O)[C@H](CC(=O)O)NC(=O)[C@H](CC(=O)O)NC1=O)NC(=O)[C@H](CC(C)(C)C)NC(=O)[C@H](CC(=O)O)NC2=O (stereo partly drawn) [I-1238, Ac-PL3-Asp-Npg-B5-Asp-Asp-Ala-Ala-Phe-Leu-PyrS2-3Thi-1NapA-Ser-NH2]
18100 nM	10 nM	COCCC(=O)N1CCC[C@]12CC=CCCCC1(CCCC=CCCCOC(=O)N3CC[C@@](C(=O)N[C@@H](Cc4ccccc4Cl)C(=O)N[C@@H](Cc4csc5ccccc45)C(=O)N[C@@H](C(N)=O)[C@H](C)O)(C3)NC(=O)[C@H](CC(N)=O)NC(=O)[C@H](Cc3ccccc3)NC(=O)[C@H](C)NC(=O)[C@H](C)NC(=O)[C@H](CC(=O)O)NC(=O)[C@H](CC(=O)O)NC1=O)NC(=O)[C@H](CC(C)(C)C)NC(=O)[C@H](CC(=O)O)NC2=O (stereo partly drawn) [I-1259, MeOPr-PL3-Asp-Npg-B5-Asp-Asp-Ala-Ala-Phe-Asn-PyrS2-2C1F-BztA-dThr-NH2]
11300 nM	18 nM	CC(=O)N1CCC[C@]12CC=CCCCC1(CCCC=CCCCCCC[C@@](C)(C(=O)N[C@@H](Cc3ccccc3)C(=O)N[C@@H](Cc3csc4ccccc34)C(=O)N[C@@H](CCC(N)=O)C(N)=O)NC(=O)[C@H](CCO)NC(=O)[C@H](Cc3ccccc3)NC(=O)[C@H](C)NC(=O)[C@H](C)NC(=O)[C@H](CC(=O)O)NC(=O)[C@H](CC(=O)O)NC1=O)NC(=O)[C@H](CC(C)(C)C)NC(=O)[C@H](CC(=O)O)NC2=O (stereo partly drawn) [I-1388, Ac-PL3-Asp-Npg-B5-Asp-Asp-Ala-Ala-Phe-Hse-S8-Phe-BztA-Gln-NH2]
9200 nM	9 nM	CC(=O)N1CCC[C@]12CC=CCCCC1(CCCC=CCCCCCC[C@@](C)(C(=O)N[C@@H](Cc3ccsc3)C(=O)N[C@@H](Cc3csc4ccccc34)C(=O)N[C@@H](CCC(N)=O)C(N)=O)NC(=O)[C@H](CCO)NC(=O)[C@H](Cc3ccccc3)NC(=O)[C@H](C)NC(=O)[C@H](C)NC(=O)[C@H](CC(=O)O)NC(=O)[C@H](CC(=O)O)NC1=O)NC(=O)[C@H](CC(C)(C)C)NC(=O)[C@H](CC(=O)O)NC2=O (stereo partly drawn) [I-1389, Ac-PL3-Asp-Npg-B5-Asp-Asp-Ala-Ala-Phe-Hse-S8-3Thi-BztA-Gln-NH2]
